Laboratory results published in publication PMC12627007, “HIV nucleocapsid proteins as targets for novel 1,2-benzisothiazol-3(2H)-one benzenesulfonamides: synthesis and antiretroviral activity” (Frontiers in Microbiology, 2025).

What was measured:
Format in all cases: cell-based
[1] = Cytotoxicity in mock-infected MT-4 cells (MTT method); conditions: human
Experimental: The activity of the test compounds against the replication of HIV-1 wt and mutant strains (N119, A17, EFV^R, AZT^R, MDR, SAQ^R) and HIV-2 wt in acutely infected cells was based on the inhibition of virus-induced cytopathogenicity in MT-4 and C8166 cells, respectively. Briefly, 50 μL of culture medium containing 1 × 10^4 cells was added to each well of flat-bottom microtitre trays containing 50 μL of culture medium with or without different serial concentrations of test compounds. Then, 20 μL of an HIV suspension (containing the appropriate amount of CCID50 required to cause complete cytopathogenicity on day 4, final multiplicity of infection [m.o.i.] 0.01) was added. After incubation at 37 °C, cell viability was determined using the […] (MTT) method ([Pauwels et al., 1988]). The cytotoxicity of the test compounds was evaluated in parallel with their antiviral activity through the viability of mock-infected, treated cells, as monitored by the MTT method and described elsewhere ([Morellet et al., 1994]).

HIV-1 IIIB strain = assay: microbe, parasite or virus in culture; conditions: for EC50: Human immunodeficiency virus 1, IIIB, MT4, read-out: EC50 HIV-1; for Selectivity Index (SI = CC50/EC50) HIV-1: IIIB strain, in round brackets
Experimental: (§1) HIV-1IIIB and HIV-2 CBL-20 strains were obtained from the supernatants of persistently infected H9/IIIB and CEM cells, respectively. HIV-1 and HIV-2 stock solutions had titres of 4.5 × 10^7 and 1.4 × 10^6 50% cell culture infectious doses (CCID50)/ml, respectively. […] The K103R + V179D + P225H mutant (EFVR) was derived from an IIIB strain passaged in MT-4 cells in the presence of Efavirenz (up to 2 μM). N119, A17 and EFV^R stock solutions had titres of 1.2 × 10^8, 2.1 × 10^7, and 4.0 × 10^7 CCID50/ml, respectively.
(§2) The activity of the test compounds against the replication of HIV-1 wt and mutant strains (N119, A17, EFV^R, AZT^R, MDR, SAQ^R) and HIV-2 wt in acutely infected cells was based on the inhibition of virus-induced cytopathogenicity in MT-4 and C8166 cells, respectively. Briefly, 50 μL of culture medium containing 1 × 10^4 cells was added to each well of flat-bottom microtitre trays containing 50 μL of culture medium with or without different serial concentrations of test compounds. Then, 20 μL of an HIV suspension (containing the appropriate amount of CCID50 required to cause complete cytopathogenicity on day 4, final multiplicity of infection [m.o.i.] 0.01) was added.

HIV-1 N119 (Y181C) = assay: Inhibition of virus-induced cytopathogenicity in MT-4 cells, NNRTI-resistant mutant N119; conditions: for EC50: Human immunodeficiency virus 1, MT4, read-out: EC50 N119; for Selectivity Index (SI = CC50/EC50) N119: in round brackets
Experimental: as §1, §2

[2] = tested on: HIV-1 A17 (K103N + Y181C); assay: Inhibition of virus-induced cytopathogenicity in MT-4 cells, NNRTI-resistant mutant A17; conditions: for EC50: Human immunodeficiency virus 1, MT4, read-out: EC50 A17; for Selectivity Index (SI = CC50/EC50) A17: in round brackets
Experimental: as §1, §2

[3] = tested on: HIV-1 EFVR (K103R + V179D + P225H); assay: Inhibition of virus-induced cytopathogenicity in MT-4 cells, NNRTI-resistant mutant EFVR; conditions: for EC50: Human immunodeficiency virus 1, MT4, read-out: EC50 EFVR; for Selectivity Index (SI = CC50/EC50) EFVR: in round brackets
Experimental: as §1, §2

[4] = tested on: HIV-1 AZTR (67N, 70R, 215F, 219Q); assay: Inhibition of virus-induced cytopathogenicity in MT-4 cells, NRTI-resistant mutant AZTR; conditions: for EC50: Human immunodeficiency virus 1, MT4, read-out: EC50 AZTR; for Selectivity Index (SI = CC50/EC50) AZTR: in round brackets
Experimental: as §1, §2

[5] = tested on: HIV-1 MDR (74V, 41L, 106A, 215Y); assay: Inhibition of virus-induced cytopathogenicity in MT-4 cells, NRTI-resistant mutant MDR; conditions: for EC50: Human immunodeficiency virus 1, MT4, read-out: EC50 MDR; for Selectivity Index (SI = CC50/EC50) MDR: in round brackets
Experimental: as §1, §2

[6] = tested on: HIV-1 SAQR (L10F, G48V, L90M); assay: Inhibition of virus-induced cytopathogenicity in MT-4 cells, PRI-resistant mutant SAQR; conditions: for EC50: Human immunodeficiency virus 1, MT4, read-out: EC50 SAQR; for Selectivity Index (SI = CC50/EC50) SAQR: in round brackets
Experimental: as §1, §2

SMILES | CC50 at 4 days [1] | EC50 (HIV-1 IIIB strain) | Selectivity Index (SI = CC50/EC50) HIV-1 (HIV-1 IIIB strain) | EC50 (HIV-1 N119 (Y181C)) | Selectivity Index (SI = CC50/EC50) N119 (HIV-1 N119 (Y181C)) | EC50 [2] | Selectivity Index (SI = CC50/EC50) A17 [2] | EC50 [3] | Selectivity Index (SI = CC50/EC50) EFVR [3] | EC50 [4] | EC50 [5] | EC50 [6] | Selectivity Index (SI = CC50/EC50) AZTR [4] | Selectivity Index (SI = CC50/EC50) MDR [5] | Selectivity Index (SI = CC50/EC50) SAQR [6]
O=c1c2ccccc2sn1NS(=O)(=O)c1ccc([N+](=O)[O-])cc1 [Compound 8, 4-Nitro-N-(3-oxo-1,2-benzisothiazol-2(3H)-yl)benzenesulfonamide] | > 100 µM | 15 ± 4 µM | > 7 | 7 ± 0.5 µM | > 14 | 11 ± 2 µM | > 9 | 9 ± 2 µM | > 11 | 7 ± 0.7 µM | 6 ± 0.5 µM | 8 ± 1 µM |  |  | 
COc1ccc(S(=O)(=O)Nn2sc3ccccc3c2=O)cc1 [Compound 9, 4-Methoxy-N-(3-oxo-1,2-benzisothiazol-2(3H)-yl)benzenesulfonamide] | 56 ± 0.1 µM | 8 ± 2 µM | 7 | 6 ± 0.5 µM | 9 | 8 ± 1 µM | 7 | 6 ± 0.7 µM | 9 | 5 ± 1 µM | 6 ± 0.7 µM | 7 ± 1 µM | 11 | 9 | 8
O=c1c2ccccc2sn1NS(=O)(=O)c1ccccc1F [Compound 10, 2-Fluoro-N-(3-oxo-1,2-benzisothiazol-2(3H)-yl)benzenesulfonamide] | > 100 µM | 7 ± 0.8 µM | > 14 | 6 ± 3 µM | > 16 | 7 ± 0.7 µM | > 14 | 5 ± 2 µM | > 20 | 6 ± 0.5 µM | 5 ± 0.5 µM | 7 ± 1 µM | > 16 | > 20 | > 14
O=c1c2ccccc2sn1NS(=O)(=O)c1ccc(F)cc1 [Compound 11, 4-Fluoro-N-(3-oxo-1,2-benzisothiazol-2(3H)-yl)benzenesulfonamide] | 50 ± 4 µM | 5 ± 2 µM | 10 | 5 ± 0.5 µM | 10 | 5 ± 0.2 µM | 10 | 2 ± 0.7 µM | 25 | 5 ± 0.5 µM | 6 ± 0.5 µM | 4 ± 0.7 µM | 10 | 8 | 12
O=c1c2ccccc2sn1NS(=O)(=O)c1ccccc1Cl [Compound 12, 2-Chloro-N-(3-oxo-1,2-benzisothiazol-2(3H)-yl)benzenesulfonamide] | 73 ± 3 µM | 13 ± 2 µM | 5 | 7 ± 0.7 µM | 10 | 11 ± 2 µM | 6 | 9 ± 0.5 µM | 8 | 9 ± 0.7 µM | 7 ± 1 µM | 9 ± 2 µM | 8 | 7 | 8
O=c1c2ccccc2sn1NS(=O)(=O)c1ccc(Cl)cc1 [Compound 13, 4-Chloro-N-(3-oxo-1,2-benzisothiazol-2(3H)-yl)benzenesulfonamide] | 33 ± 0.1 µM | 11 ± 4 µM | 3 | 6 ± 0.9 µM | 5 | 8 ± 1.4 µM | 4 | 3 ± 1 µM | 10 | 7 ± 1 µM | 7 ± 2 µM | 8 ± 2 µM | 4 | 4 | 4
O=c1c2ccccc2sn1NS(=O)(=O)c1cccc(Cl)c1 [Compound 14, 3-Chloro-N-(3-oxo-1,2-benzisothiazol-2(3H)-yl)benzenesulfonamide] | 40 ± 2 µM | 5 ± 1 µM | 8 | 7 ± 1.4 µM | 5 | 3 ± 1 µM |  | 7 ± 1 µM |  | 6 ± 0.7 µM | 6 ± 1 µM | 4 ± 0.7 µM | 6 | 6 | 10
O=c1c2ccccc2sn1NS(=O)(=O)c1ccc(Cl)c(Cl)c1 [Compound 15, 3,4-Dichloro-N-(3-oxo-1,2-benzisothiazol-2(3H)-yl)benzenesulfonamide] | 66 ± 3 µM | 15 ± 4 µM | 4 | 7 ± 0.1 µM | 9 | 8 ± 2 µM | 8 | 8 ± 1.5 µM | 8 | 6 ± 1 µM | 11 ± 3 µM | 8 ± 2 µM | 11 | 6 | 8
O=c1c2ccccc2sn1NS(=O)(=O)c1cc(Cl)cc(Cl)c1 [Compound 16, 3,5-Dichloro-N-(3-oxo-1,2-benzisothiazol-2(3H)-yl)benzenesulfonamide] | 86 ± 1 µM | 16 ± 5 µM | 5 | 7 ± 0.4 µM | 12 | 11 ± 2 µM | 7 | 10 ± 3 µM | 8 | 8 ± 0.7 µM | 13 ± 2 µM | 12 ± 2 µM | 10 | 6 | 7
